Measured values reported in patent publication US20230389548A1, “MIXTURES OF PYRIMIDINES AS HERBICIDAL COMPOSITIONS” (SYNGENTA CROP PROTECTION AG, priority 2020, published 2023).

Key:
Assay in all cases: Post-emergence glasshouse spray test, visual percentage phytotoxicity after 13 days
Assay type in all cases: in vivo
[1] = test system: Digitaria sanguinalis (DIGSA); conditions: for DIGSA percentage phytotoxicity: B1
Method: (§1) Seeds of Setaria faberi (SETFA), Echinochloa crus-galli (ECHCG), Digitaria sanguinalis (DIGSA), Lolium perenne (LOLPE), Alopecurus myosuroides (ALOMY), Chenopodium album (CHEAL), Ipomoea hederacea (IPOHE), Stellaria media (STEME), Abutilon threophrasti (ABUTH), Amaranthus retroflexus (AMARE) were sown in standard sterilised soil in pots. After cultivation for 8 days under controlled conditions in a glasshouse (at 24/19° C., day/night; 16 hours light; no humidity control), the plants were sprayed at 500 l/Ha with an aqueous spray solution derived from the formulation of the technical active ingredients in a small amount of acetone and a solvent and emulsifier mixture referred to as IF50 (11.12% Emulsogen EL360™+44.44% N-methylpyrrolidone+44.44% Dowanol DPM glycol ether), to create a 50 g/l solution which was then diluted using 0.2% Genapol XO80 (CAS Number: 9043-30-5) as diluent to give the desired final dose of test compound.
(§2) Where active ingredients were applied as mixtures, aqueous spray solutions were prepared as above, containing both active ingredients.
(§3) The test plants were then grown under controlled conditions in a glasshouse (at 24/18° C., day/night; 15 hours light; 50% humidity) and watered twice daily. After 13 days, the test was evaluated visually for percentage phytotoxicity to the plants (where 100=total damage to plant; 0=no damage to plant; and NC=not captured) when compared to control untreated plants. Two to four replicates were applied for each treatment in a randomised block test design.
(§4) 22., E=X+Y−(X*Y/100), where
(§5) X=average percent phytotoxicity of herbicide A when applied at a certain rate Y=average percent phytotoxicity using herbicide B when applied at a certain rate E=the expected effect of the mixture of herbicides A and B as calculated from the Colby formula.

[2] = test system: Abutilon threophrasti (ABUTH); conditions: B1
Method: as §1, §2, §3, §4, §5

Lolium perenne (LOLPE) = conditions: for LOLPE percentage phytotoxicity: B1
Method: as §1, §2, §3, §4, §5

[3] = test system: Amaranthus retroflexus (AMARE); conditions: B1
Method: as §1, §2, §3, §4, §5

[4] = test system: Ipomoea hederacea (IPOHE); conditions: for IPOHE percentage phytotoxicity: B1
Method: as §1, §2, §3, §4, §5

Setaria faberi (SETFA) = conditions: for SETFA percentage phytotoxicity: B1; for Observed phytotoxicity SETFA: B2.6.1
Method: as §1, §2, §3, §4, §5

[5] = test system: Chenopodium album (CHEAL); conditions: B1
Method: as §1, §2, §3, §4, §5

Stellaria media (STEME) = conditions: for STEME percentage phytotoxicity: B1
Method: as §1, §2, §3, §4, §5

[6] = test system: Alopecurus myosuroides (ALOMY); conditions: B1
Method: as §1, §2, §3, §4, §5

Work on `COc1c(Cl)ccc(-c2nc(C(=O)OCc3ccccc3)c(Cl)c(N)c2F)c1F` [B-I] yielded a DIGSA percentage phytotoxicity ([1]; 0.625 g/ha post-emergence) of 0%, a DIGSA percentage phytotoxicity ([1]; 1.25 g/ha post-emergence) of 3% and a DIGSA percentage phytotoxicity ([1]; 2.5 g/ha post-emergence) of 5%. The DIGSA percentage phytotoxicity ([1]; 5 g/ha post-emergence) was 0%, the DIGSA percentage phytotoxicity ([1]; 10 g/ha post-emergence) was 10% and the “Observed phytotoxicity DIGSA” value ([1]; B2.5.1, 5 g/ha post-emergence) was 0%. It also gave an ABUTH percentage phytotoxicity ([2]; 0.625 g/ha post-emergence) of 75%, an ABUTH percentage phytotoxicity ([2]; 1.25 g/ha post-emergence) of 83% and an ABUTH percentage phytotoxicity ([2]; 2.5 g/ha post-emergence) of 80%. For the same compound, the ABUTH percentage phytotoxicity ([2]; 5 g/ha post-emergence) was 80%, the ABUTH percentage phytotoxicity ([2]; 10 g/ha post-emergence) was 85% and the LOLPE percentage phytotoxicity (Lolium perenne (LOLPE); 0.625 g/ha post-emergence) was 0%. For the same compound, the LOLPE percentage phytotoxicity (Lolium perenne (LOLPE); 1.25 g/ha post-emergence) was 0%, the LOLPE percentage phytotoxicity (Lolium perenne (LOLPE); 2.5 g/ha post-emergence) was 0% and the LOLPE percentage phytotoxicity (Lolium perenne (LOLPE); 5 g/ha post-emergence) was 0%. The LOLPE percentage phytotoxicity (Lolium perenne (LOLPE); 10 g/ha post-emergence) was 5%, the “Observed phytotoxicity LOLPE” value (Lolium perenne (LOLPE); B2.5.2, 5 g/ha post-emergence) was 0% and the AMARE percentage phytotoxicity ([3]; 0.625 g/ha post-emergence) was 53%. It also gave an AMARE percentage phytotoxicity ([3]; 1.25 g/ha post-emergence) of 58%, an AMARE percentage phytotoxicity ([3]; 2.5 g/ha post-emergence) of 65% and an AMARE percentage phytotoxicity ([3]; 5 g/ha post-emergence) of 58%. The AMARE percentage phytotoxicity ([3]; 10 g/ha post-emergence) was 70%, the IPOHE percentage phytotoxicity ([4]; 0.625 g/ha post-emergence) was 13% and the IPOHE percentage phytotoxicity ([4]; 1.25 g/ha post-emergence) was 33%. For the same compound, the IPOHE percentage phytotoxicity ([4]; 2.5 g/ha post-emergence) was 58%, the IPOHE percentage phytotoxicity ([4]; 5 g/ha post-emergence) was 55% and the IPOHE percentage phytotoxicity ([4]; 10 g/ha post-emergence) was 53%. It also gave an SETFA percentage phytotoxicity (Setaria faberi (SETFA); 0.625 g/ha post-emergence) of 0%, an SETFA percentage phytotoxicity (Setaria faberi (SETFA); 1.25 g/ha post-emergence) of 0% and an SETFA percentage phytotoxicity (Setaria faberi (SETFA); 2.5 g/ha post-emergence) of 5%. It also gave an SETFA percentage phytotoxicity (Setaria faberi (SETFA); 5 g/ha post-emergence) of 3%, an SETFA percentage phytotoxicity (Setaria faberi (SETFA); 10 g/ha post-emergence) of 20% and a CHEAL percentage phytotoxicity ([5]; 0.625 g/ha post-emergence) of 63%. The CHEAL percentage phytotoxicity ([5]; 1.25 g/ha post-emergence) was 63%, the CHEAL percentage phytotoxicity ([5]; 2.5 g/ha post-emergence) was 60% and the CHEAL percentage phytotoxicity ([5]; 5 g/ha post-emergence) was 70%. It also gave a CHEAL percentage phytotoxicity ([5]; 10 g/ha post-emergence) of 75%, an STEME percentage phytotoxicity (Stellaria media (STEME); 0.625 g/ha post-emergence) of 50% and an STEME percentage phytotoxicity (Stellaria media (STEME); 1.25 g/ha post-emergence) of 58%. For the same compound, the STEME percentage phytotoxicity (Stellaria media (STEME); 2.5 g/ha post-emergence) was 75%, the STEME percentage phytotoxicity (Stellaria media (STEME); 5 g/ha post-emergence) was 70% and the STEME percentage phytotoxicity (Stellaria media (STEME); 10 g/ha post-emergence) was 85%. It also gave an ALOMY percentage phytotoxicity ([6]; 0.625 g/ha post-emergence) of 0%, an ALOMY percentage phytotoxicity ([6]; 1.25 g/ha post-emergence) of 0% and an ALOMY percentage phytotoxicity ([6]; 2.5 g/ha post-emergence) of 0%. For the same compound, the ALOMY percentage phytotoxicity ([6]; 5 g/ha post-emergence) was 0% and the ALOMY percentage phytotoxicity ([6]; 10 g/ha post-emergence) was 3%.
With `Nc1c(F)c(-c2ccc3cc[nH]c3c2F)nc(C(=O)O)c1Cl` [B-VI] the DIGSA percentage phytotoxicity ([1]; 0.625 g/ha post-emergence) was 0%, the DIGSA percentage phytotoxicity ([1]; 1.25 g/ha post-emergence) was 0% and the DIGSA percentage phytotoxicity ([1]; 2.5 g/ha post-emergence) was 0%. For the same compound, the DIGSA percentage phytotoxicity ([1]; 5 g/ha post-emergence) was 8%, the DIGSA percentage phytotoxicity ([1]; 10 g/ha post-emergence) was 43% and the “Observed phytotoxicity DIGSA” value ([1]; B2.6.2, 0.625 g/ha post-emergence) was 0%. The “Observed phytotoxicity DIGSA” value ([1]; B2.6.2, 1.25 g/ha post-emergence) was 0%, the “Observed phytotoxicity DIGSA” value ([1]; B2.6.2, 5 g/ha post-emergence) was 8% and the ABUTH percentage phytotoxicity ([2]; 0.625 g/ha post-emergence) was 38%. It also gave an ABUTH percentage phytotoxicity ([2]; 1.25 g/ha post-emergence) of 55%, an ABUTH percentage phytotoxicity ([2]; 2.5 g/ha post-emergence) of 73% and an ABUTH percentage phytotoxicity ([2]; 5 g/ha post-emergence) of 78%. The ABUTH percentage phytotoxicity ([2]; 10 g/ha post-emergence) was 78%, the LOLPE percentage phytotoxicity (Lolium perenne (LOLPE); 0.625 g/ha post-emergence) was 0% and the LOLPE percentage phytotoxicity (Lolium perenne (LOLPE); 1.25 g/ha post-emergence) was 0%. For the same compound, the LOLPE percentage phytotoxicity (Lolium perenne (LOLPE); 2.5 g/ha post-emergence) was 0%, the LOLPE percentage phytotoxicity (Lolium perenne (LOLPE); 5 g/ha post-emergence) was 8% and the LOLPE percentage phytotoxicity (Lolium perenne (LOLPE); 10 g/ha post-emergence) was 8%. The “Observed phytotoxicity LOLPE” value (Lolium perenne (LOLPE); B2.6.3, 5 g/ha post-emergence) was 8%, the AMARE percentage phytotoxicity ([3]; 0.625 g/ha post-emergence) was 58% and the AMARE percentage phytotoxicity ([3]; 1.25 g/ha post-emergence) was 65%. The AMARE percentage phytotoxicity ([3]; 2.5 g/ha post-emergence) was 73%, the AMARE percentage phytotoxicity ([3]; 5 g/ha post-emergence) was 95% and the AMARE percentage phytotoxicity ([3]; 10 g/ha post-emergence) was 90%. For the same compound, the IPOHE percentage phytotoxicity ([4]; 0.625 g/ha post-emergence) was 13%, the IPOHE percentage phytotoxicity ([4]; 1.25 g/ha post-emergence) was 35% and the IPOHE percentage phytotoxicity ([4]; 2.5 g/ha post-emergence) was 38%. The IPOHE percentage phytotoxicity ([4]; 5 g/ha post-emergence) was 48%, the IPOHE percentage phytotoxicity ([4]; 10 g/ha post-emergence) was 50% and the “Observed phytotoxicity IPOHE” value ([4]; B2.6.4, 2.5 g/ha post-emergence) was 38%. The SETFA percentage phytotoxicity (Setaria faberi (SETFA); 0.625 g/ha post-emergence) was 0%, the SETFA percentage phytotoxicity (Setaria faberi (SETFA); 1.25 g/ha post-emergence) was 0% and the SETFA percentage phytotoxicity (Setaria faberi (SETFA); 2.5 g/ha post-emergence) was 0%. For the same compound, the SETFA percentage phytotoxicity (Setaria faberi (SETFA); 5 g/ha post-emergence) was 48%, the SETFA percentage phytotoxicity (Setaria faberi (SETFA); 10 g/ha post-emergence) was 70% and the “Observed phytotoxicity SETFA” value (Setaria faberi (SETFA); 0.625 g/ha post-emergence) was 0%. For the same compound, the “Observed phytotoxicity SETFA” value (Setaria faberi (SETFA); 1.25 g/ha post-emergence) was 0%, the CHEAL percentage phytotoxicity ([5]; 0.625 g/ha post-emergence) was 58% and the CHEAL percentage phytotoxicity ([5]; 1.25 g/ha post-emergence) was 73%. For the same compound, the CHEAL percentage phytotoxicity ([5]; 2.5 g/ha post-emergence) was 75%, the CHEAL percentage phytotoxicity ([5]; 5 g/ha post-emergence) was 94% and the CHEAL percentage phytotoxicity ([5]; 10 g/ha post-emergence) was 84%. It also gave an STEME percentage phytotoxicity (Stellaria media (STEME); 0.625 g/ha post-emergence) of 78%, an STEME percentage phytotoxicity (Stellaria media (STEME); 1.25 g/ha post-emergence) of 50% and an STEME percentage phytotoxicity (Stellaria media (STEME); 2.5 g/ha post-emergence) of 65%. For the same compound, the STEME percentage phytotoxicity (Stellaria media (STEME); 5 g/ha post-emergence) was 98%, the STEME percentage phytotoxicity (Stellaria media (STEME); 10 g/ha post-emergence) was 90% and the “Observed phytotoxicity STEME” value (Stellaria media (STEME); B2.6.5, 1.25 g/ha post-emergence) was 50%. The ALOMY percentage phytotoxicity ([6]; 0.625 g/ha post-emergence) was 0%, the ALOMY percentage phytotoxicity ([6]; 1.25 g/ha post-emergence) was 0% and the ALOMY percentage phytotoxicity ([6]; 2.5 g/ha post-emergence) was 0%. The ALOMY percentage phytotoxicity ([6]; 5 g/ha post-emergence) was 33% and the ALOMY percentage phytotoxicity ([6]; 10 g/ha post-emergence) was 30%.
